Assay results published in patent US9387203B2, “Substituted aminoindane- and aminotetralinecarboxylic acids and the use thereof” (BAYER PHARMA AKTIENGESELLSCHAFT, priority 2012, dated 2016).

Key:
[1] = tested on: rabbit arteria saphena rings; assay: Vasorelaxant effect in vitro (arteria saphena rings, phenylephrin contraction); parameters: species or system Rabbits; conditions: concentration reducing phenylephrin-induced contraction by 50%
Experimental: B-3. Vasorelaxant Effect In Vitro
Rabbits are anaesthetized by intravenous injection of thiopental sodium […] (about 50 mg/kg) and exsanguinated. The arteria saphena is removed and divided into 3 mm wide rings. The rings are individually mounted on in each case one triangular pair of hooks, open at the end, made of 0.3 mm strong special wire (Remanium®). Under pretension, each ring is transferred into 5 ml organ baths containing carbogen-gassed Krebs-Henseleit solution of a temperature of 37° C. having the following composition: NaCl 119 mM; KCl 4.8 mM; CaCl2×2 H2O 1 mM; MgSO4×7 H2O 1.4 mM; KH2PO4 1.2 mM; NaHCO3 25 mM; glucose 10 mM; bovine serum albumin 0.001%. The contractile force is determined with Statham UC2 cells, amplified and digitalized using A/D transducers (DAS-1802 HC, Keithley Instruments Munich), and recorded in parallel on linear recorders. Contractions are induced by addition of phenylephrin.
After several (in general 4) control cycles, the substance to be investigated is added in each further passage in increasing dosage, and the height of the contraction achieved under the influence of the test substance is compared with the height of the contraction achieved in the last preliminary passage. From this, the concentration which is necessary in order to reduce the contraction achieved in the preliminary control by 50% (IC50) is calculated. The standard administration volume is 5 μl. The proportion of DMSO in the bath solution corresponds to 0.1%.

[2] = target: T1, soluble guanylate cyclase (sGC) (Rattus norvegicus, UniProt P20595); assay: Stimulation of sGC enzyme activity (PPi detection, luciferase); type: biochemical; conditions: for EC50: sGC enzyme in vitro, read-out: EC50 (half-maximal effective concentration), activating action at the sGC enzyme in vitro
T1 construct: made in house
T1 sequence (P20595 1-619): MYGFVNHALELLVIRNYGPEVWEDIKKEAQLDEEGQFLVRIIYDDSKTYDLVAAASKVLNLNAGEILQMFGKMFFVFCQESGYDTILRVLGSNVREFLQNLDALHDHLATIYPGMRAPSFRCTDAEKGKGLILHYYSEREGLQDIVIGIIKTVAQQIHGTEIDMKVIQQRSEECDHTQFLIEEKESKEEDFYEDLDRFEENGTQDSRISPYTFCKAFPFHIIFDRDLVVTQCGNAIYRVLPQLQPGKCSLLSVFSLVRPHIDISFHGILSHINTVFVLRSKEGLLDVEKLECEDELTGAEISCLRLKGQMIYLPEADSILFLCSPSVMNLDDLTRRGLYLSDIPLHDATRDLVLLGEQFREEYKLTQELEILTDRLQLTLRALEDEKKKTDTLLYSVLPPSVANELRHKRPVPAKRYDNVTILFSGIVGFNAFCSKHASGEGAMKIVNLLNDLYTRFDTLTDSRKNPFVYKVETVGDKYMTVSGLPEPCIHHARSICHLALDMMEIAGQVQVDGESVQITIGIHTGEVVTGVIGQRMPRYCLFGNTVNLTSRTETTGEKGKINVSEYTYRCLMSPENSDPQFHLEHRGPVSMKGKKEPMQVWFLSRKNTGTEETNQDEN
T1 sequence (P19686 1-690 partner): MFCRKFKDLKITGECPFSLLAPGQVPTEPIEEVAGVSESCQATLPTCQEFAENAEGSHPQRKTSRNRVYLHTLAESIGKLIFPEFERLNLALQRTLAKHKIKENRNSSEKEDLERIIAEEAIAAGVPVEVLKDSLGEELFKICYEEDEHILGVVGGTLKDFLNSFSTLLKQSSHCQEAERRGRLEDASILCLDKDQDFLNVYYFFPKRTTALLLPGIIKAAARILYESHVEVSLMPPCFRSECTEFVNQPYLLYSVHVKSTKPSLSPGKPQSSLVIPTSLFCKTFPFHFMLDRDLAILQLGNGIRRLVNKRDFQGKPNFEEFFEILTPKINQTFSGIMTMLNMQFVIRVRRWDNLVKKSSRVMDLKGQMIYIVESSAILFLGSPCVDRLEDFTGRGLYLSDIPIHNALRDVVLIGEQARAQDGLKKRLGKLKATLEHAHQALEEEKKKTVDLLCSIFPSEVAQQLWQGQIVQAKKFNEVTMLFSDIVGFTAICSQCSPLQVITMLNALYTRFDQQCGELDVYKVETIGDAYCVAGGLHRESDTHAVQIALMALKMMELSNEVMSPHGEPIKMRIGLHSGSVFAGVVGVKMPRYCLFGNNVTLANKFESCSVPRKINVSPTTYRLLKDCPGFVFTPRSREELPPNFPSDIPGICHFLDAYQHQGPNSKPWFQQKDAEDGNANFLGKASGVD
Experimental: B-2. Stimulation of sGC Enzyme Activity
Soluble guanylate cyclase (sGC) converts on stimulation GTP into cGMP and pyrophosphate (PPi). PPi is detected with the aid of the assay described below. The signal produced in the assay increases as the reaction progresses and serves as a measure of the sGC enzyme activity under the given stimulation.
To carry out the assay, 29 μl of enzyme solution[0-10 nM soluble guanylate cyclase (prepared according to Honicka et al., J. Mol. Med. 77, 14-23 (1999)) in 50 mM TEA, 2 mM MgCl2, 0.1% BSA (fraction V), 0.005% Brij®, pH 7.5] are initially introduced into a microplate, and 1 μl of the substance to be tested (as a serially diluted solution in DMSO) is added. The mixture is incubated at room temperature for 10 min. Then 20 μl of detection mix [1.2 nM Firefly Luciferase (Photinus pyralis luciferase, Promega), 29 μM dehydroluciferin (prepared according to Bitler & McElroy, Arch. Biochem. Biophys. 72, 358 (1957)), 122 μM luciferin (Promega), 153 μM ATP (Sigma) and 0.4 mM DTT (Sigma) in 50 mM TEA, 2 mM MgCl2, 0.1% BSA (fraction V), 0.005% Brij®, pH 7.5] are added. The enzyme reaction is started by adding 20 μl of substrate solution[1.25 mM guanosine 5′-triphosphate (Sigma) in 50 mM TEA, 2 mM MgCl2, 0.1% BSA (fraction V), 0.005% Brij®, pH 7.5] and measured continuously in a luminometer. The extent of the stimulation by the substance to be tested can be determined relative to the signal of the unstimulated reaction.
The activation of haem-free guanylate cyclase is examined by addition of 25 μM of 1H-1,2,4-oxadiazolo[4,3-a]quinoxalin-1-one (ODQ) to the enzyme solution and subsequent incubation for 30 minutes and compared to the stimulation of the native enzyme.

[3] = tested on: recombinant guanylate cyclase reporter cell line (CHO); assay: Effect on a recombinant guanylate cyclase reporter cell line (sGC-activating activity in the CHO reporter cell); type: cell-based
Experimental: B-1. Effect on a Recombinant Guanylate Cyclase Reporter Cell Line
The cellular activity of the compounds according to the invention is determined using a recombinant guanylate cyclase reporter cell line, as described in F. Wunder et al., Anal. Biochem. 339, 104-112 (2005).

CC(C)(C)c1ccc(COc2ccccc2CCN(CCCCC(=O)O)C2CCCc3cc(C(=O)O)ccc32)cc1 (racemic) [Example 1, rac-5-[(2-{2[(4-tert-Butylbenzyl)oxy]phenyl}ethyl)(4-carboxybutyl)amino]-5,6,7,8-tetrahydronaphthalene-2-carboxylic acid]
IC50 ([1]; Oryctolagus cuniculus): 6 nM | MEC (minimum effective concentration), activating action at the sGC enzyme in vitro [2]: 0.34 nM | EC50 [2]: 3 nM | MEC (minimum effective concentration), sGC-activating activity in the CHO reporter cell in vitro [3]: 0.3 nM

CC(C)(C)c1ccc(COc2ccccc2CCN(CCCCC(=O)O)C2CCCc3cc(C(=O)O)ccc32)cc1 (single isomer, unassigned; enantiomer 1) [Example 2, 5-[(2-{2-[(4-tert-Butylbenzyl)oxy]phenyl}ethyl)(4-carboxybutyl)amino]-5,6,7,8-tetrahydronaphthalene-2-carboxylic acid (enantiomer 1)]
IC50 [1]: 3.8 nM | MEC (minimum effective concentration), activating action at the sGC enzyme in vitro [2]: 0.11 nM | EC50 [2]: 2.5 nM | MEC (minimum effective concentration), sGC-activating activity in the CHO reporter cell in vitro [3]: 0.2 nM

CC(C)(C)c1ccc(COc2ccccc2CCN(CCCCC(=O)O)C2CCCc3cc(C(=O)O)ccc32)cc1 (single isomer, unassigned; enantiomer 2) [Example 3, 5-[(2-{2-[(4-tert-Butylbenzyl)oxy]phenyl}ethyl)(4-carboxybutyl)amino]-5,6,7,8-tetrahydronaphthalene-2-carboxylic acid (enantiomer 2)]
IC50 [1]: 58 nM | MEC (minimum effective concentration), activating action at the sGC enzyme in vitro [2]: 5 nM | EC50 [2]: 43 nM | MEC (minimum effective concentration), sGC-activating activity in the CHO reporter cell in vitro [3]: 0.65 nM

CC(C)(C)c1ccc(COc2ccccc2CCN(CCCCC(=O)O)C2CCc3cc(C(=O)O)ccc32)cc1 (stereo not drawn) [Example 4]
IC50 ([1]; Oryctolagus cuniculus): 31 nM | MEC (minimum effective concentration), activating action at the sGC enzyme in vitro [2]: 0.21 nM | EC50 [2]: 4.5 nM | MEC (minimum effective concentration), sGC-activating activity in the CHO reporter cell in vitro [3]: 3.0 nM

O=C(O)CCCCN(CCc1ccccc1OCc1ccc(CCc2ccccc2)cc1)C1CCCc2cc(C(=O)O)ccc21 (stereo not drawn) [Example 8]
MEC (minimum effective concentration), activating action at the sGC enzyme in vitro [2]: 0.32 nM | EC50 [2]: 7.2 nM | MEC (minimum effective concentration), sGC-activating activity in the CHO reporter cell in vitro [3]: 0.3 nM

N#Cc1cccc(COc2ccccc2CCN(CCCCC(=O)O)C2CCCc3cc(C(=O)O)ccc32)c1 (stereo not drawn) [Example 10]
MEC (minimum effective concentration), activating action at the sGC enzyme in vitro [2]: 270 nM | MEC (minimum effective concentration), sGC-activating activity in the CHO reporter cell in vitro [3]: 1000 nM

Cc1cc(COc2ccccc2CCN(CCCCC(=O)O)C2CCCc3cc(C(=O)O)ccc32)n(C)n1 (stereo not drawn) [Example 11]
MEC (minimum effective concentration), activating action at the sGC enzyme in vitro [2]: 610 nM

CC1CCC(=O)N1CCCCOc1ccccc1CCN(CCCCC(=O)O)C1CCCc2cc(C(=O)O)ccc21 (stereo not drawn) [Example 13]
MEC (minimum effective concentration), activating action at the sGC enzyme in vitro [2]: 55 nM

O=C(O)CCCCN(CCc1ccccc1OCCCCN1CCCC1=O)C1CCCc2cc(C(=O)O)ccc21 (stereo not drawn) [Example 16]
MEC (minimum effective concentration), activating action at the sGC enzyme in vitro [2]: 600 nM
